Like-named read-outs stand apart in the source and are kept apart here.

Here are results for 22 compounds from publication PMC7504092, “Synthesis and Antiplasmodial Evaluation of 4-Carboxamido- and 4-Alkoxy-2-Trichloromethyl Quinazolines” (Molecules, 2020).

Data set [1] concerns HepG2 cell line. Also noted: method as in earlier work. The conditions noted are these: previously described compounds; ref 9 (A), 10 (B), 11 (C), 12 (series D); read-out: Cytotoxicity CC50 HepG2; cited from earlier work.
In data set [2] the test system is K1 P. falciparum strain. The note with it: previously described compounds; ref 9 (A), 10 (B), 11 (C), 12 (series D); read-out: Antiplasmodial activity EC50 P. falciparum K1; cited from earlier work.
Data set [3] has as its system K1 P. falciparum strain. In words: In vitro antiplasmodial evaluation (SYBR Green I fluorescence-based method). The note with it: for SI (selectivity index = CC50/EC50): CC50 HepG2 / EC50 PfK1; for EC50: multi-resistant K1 P. falciparum strain, 72 h incubation, read-out: PfK1 EC50. In kind it is cell-based. The procedure:
It was maintained in continuous culture as described previously by Trager and Jensen. […] Parasitemia was maintained daily at between 1 and 3%. The P. falciparum drug susceptibility test was carried out by comparing quantities of DNA in treated and control cultures of parasite in human erythrocytes according to an SYBR Green I fluorescence-based method using a 96-well fluorescence plate reader. […] Duplicate assays were performed for each sample. After incubation, plates were frozen at -20 °C for 24 h. […] Fifteen μL of each sample were transferred to 96-well flat bottom non-sterile black plates (Greiner Bio-one) already containing 15 μL of the SYBR Green I lysis buffer (2X SYBR Green I, 20 mM Tris base pH 7.5, 20 mM EDTA, 0.008% w/v saponin, 0.08% w/v Triton X-100).

Data set [4] is described as follows: Solubility of the tested molecule in the culture medium. The conditions noted are these: culture medium of the cytotoxicity test. It counts as physicochemical. The procedure:
HepG2 cell line was maintained at 37 °C, 5% CO2, at 90% humidity in […] supplemented with 10% fetal bovine serum, 1% L-glutamine (200 mM) and penicillin (100 U/mL)/streptomycin (100 µg/mL) (complete RPMI medium). The cytotoxicity of the tested molecules on the HepG2 (hepatocarcinoma cell line purchased from ATCC, ref HB-8065) cell line was assessed according to the method of Mosmann with slight modifications. Briefly, 5.10^3 cells in 100 µL of complete medium were inoculated into each well of 96-well plates and incubated at 37 °C in humidified 5% CO2. After 24 h incubation, 100 μL of medium with various product concentrations dissolved in DMSO (final concentration less than 0.5% v/v) were added and the plates were incubated for 72 h at 37 °C. Triplicate assays were performed for each sample. Each plate-well was then microscope-examined for possible precipitate formation before the medium was aspirated from the wells. 100 μL of MTT (3-(4,5-dimethyl-2-thiazolyl)-2,5-diphenyl-2H-tetrazolium bromide) solution (0.5 mg/mL in medium without FBS) were then added to each well. Cells were incubated for 2 h at 37 °C. After this time, the MTT solution was removed and DMSO (100 μL) was added to dissolve the resulting blue formazan crystals. Plates were shaken vigorously (700 rpm) for 10 min. The absorbance was measured at 570 nm with 630 nm as reference wavelength using a BIO-TEK ELx808 Absorbance Microplate Reader (LabX, Midland, ON, Canada). DMSO was used as blank and doxorubicin (purchased from Sigma Aldrich) as positive control. Cell viability was calculated as percentage of control (cells incubated without compound). […] CC50 values represent the mean value calculated from three independent experiments.

Data set [5] is described as follows: In vitro cytotoxicity evaluation (MTT). It counts as cell-based. The note with it: human. The procedure: Triplicate assays were performed for each sample. Each plate-well was then microscope-examined for possible precipitate formation before the medium was aspirated from the wells. 100 μL of MTT (3-(4,5-dimethyl-2-thiazolyl)-2,5-diphenyl-2H-tetrazolium bromide) solution (0.5 mg/mL in medium without FBS) were then added to each well. […] After this time, the MTT solution was removed and DMSO (100 μL) was added to dissolve the resulting blue formazan crystals. Plates were shaken vigorously (700 rpm) for 10 min. The absorbance was measured at 570 nm with 630 nm as reference wavelength using a BIO-TEK ELx808 Absorbance Microplate Reader (LabX, Midland, ON, Canada). DMSO was used as blank and doxorubicin (purchased from Sigma Aldrich) as positive control. Cell viability was calculated as percentage of control (cells incubated without compound). […] CC50 values represent the mean value calculated from three independent experiments.

Where [6] appears, read: Plasmodium falciparum, K1, 72 h.

One may read the CC50 as the concentration at which the toxic effect on the cells reaches its halfway point. In general, EC50 refers to the concentration giving half of the maximal effect. Regarding `Fc1ccc(-c2nc(C(Cl)(Cl)Cl)nc3ccccc23)cc1` [A, 4-(4′-fluorophenyl)-2-trichloromethylquinazoline], the half-maximal cytotoxic concentration (CC50) in data set [1] is over 125 µM. Also, the EC50 in data set [2] was 2.5 µM.

For the compound `O=[N+]([O-])c1ccc(COc2nc(C(Cl)(Cl)Cl)nc3ccccc23)cc1` [C], the CC50 in data set [1] was 19.4 µM. The EC50 in data set [2] is 1.8 µM.

A word on the melting point: it is the temperature of the solid-liquid transition. `O=C(Nc1nc(C(Cl)(Cl)Cl)nc2ccccc12)c1ccccc1[N+](=O)[O-]` [Molecule 8, 2-Nitro-N-(2-Trichloromethylquinazolin-4-yl)benzamide] returned a melting point of 257 °C. In data set [3], the “SI (selectivity index = CC50/EC50)” value is over 5.2. The EC50 in data set [3] (setting [6]) worked out at 3 µM. Further, the “solubility (in words)” value in data set [4] is recorded as “lack of solubility”. In data set [5], this compound came in with a CC50 at 72 h of over 15.6 µM.

On to `O=C(Nc1nc(C(Cl)(Cl)Cl)nc2ccccc12)c1ccccc1F` [Molecule 11, 2-Fluoro-N-(2-Trichloromethylquinazolin-4-yl)benzamide], for which the concentration for a half-maximal effect (EC50) in data set [3] (setting [6]) came to 5.23 µM. Besides, the “solubility (in words)” value in data set [4] is “lack of solubility”. This compound showed a 50% cytotoxic concentration (CC50) at 72 h in data set [5] of over 15.6 µM.

In turn, `O=C(Nc1nc(C(Cl)(Cl)Cl)nc2ccccc12)c1ccccn1` [Molecule 17, N-(2-Trichloromethylquinazolin-4-yl)picolinamide] displayed a melting point of 214 °C. The “SI (selectivity index = CC50/EC50)” value in data set [3] is reported as over 0.5. Further, the concentration for a half-maximal effect (EC50) in data set [3] (setting [6]) was found to be 14.5 µM. For the same compound, in data set [4], the “solubility (in words)” value is “lack of solubility”. In data set [5], this compound registered a CC50 at 72 h of over 7.8 µM.

`CC(=O)Nc1nc(C(Cl)(Cl)Cl)nc2ccccc12` [Molecule 20, N-(2-Trichloromethylquinazolin-4-yl)acetamide] registered a melting point of 217 °C. For the same compound, the 50% effective concentration (EC50) in data set [3] (setting [6]) is over 10 µM. Further, the “solubility (in words)” value in data set [4] is recorded as “lack of solubility”. For the same compound, the cytotoxic concentration (CC50) at 72 h in data set [5] is 31.2 µM.

Compound `CCC(=O)Nc1nc(C(Cl)(Cl)Cl)nc2ccccc12` [Molecule 21, N-(2-Trichloromethylquinazolin-4-yl)propionamide] had a melting point of 171 °C. Also, the “SI (selectivity index = CC50/EC50)” value in data set [3] is listed as over 12.8. For the same compound, the EC50 in data set [3] (setting [6]) was 4.9 µM. Further, the “solubility (in words)” value in data set [4] is reported as “lack of solubility”. Besides, the CC50 at 72 h in data set [5] was over 62.5 µM.

Turning to `CCCCC(=O)Nc1nc(C(Cl)(Cl)Cl)nc2ccccc12` [Molecule 24, N-(2-Trichloromethylquinazolin-4-yl)pentanamide], the melting point amounted to 136 °C. The EC50 in data set [3] (setting [6]) was at most 2 µM. Further, the EC50 in data set [3] is 1.6 µM. Further, the “solubility (in words)” value in data set [4] was “lack of solubility”. In data set [5], this compound showed a 50% cytotoxic concentration (CC50) at 72 h of 42.3 µM.

Compound `CCOc1nc(C(Cl)(Cl)Cl)nc2ccccc12` [Molecule 27, 4-Ethoxy-2-Trichloromethylquinazoline] registered a melting point of 73 °C. Further, the “SI (selectivity index = CC50/EC50)” value in data set [3] turned out to be 10. For the same compound, the 50% effective concentration (EC50) in data set [3] (setting [6]) worked out at 4.7 µM. In data set [5], half-maximal cytotoxicity (CC50 at 72 h) was put at 47.1 µM.

`CCCOc1nc(C(Cl)(Cl)Cl)nc2ccccc12` [Molecule 28, 4-Propoxy-2-Trichloromethylquinazoline] yielded a melting point of 39 °C. The “SI (selectivity index = CC50/EC50)” value in data set [3] is 15. In data set [3] (setting [6]), the half-maximal effective concentration (EC50) amounted to 3.5 µM. In data set [5], the CC50 at 72 h was 54.8 µM.

Turning to `CC(C)Oc1nc(C(Cl)(Cl)Cl)nc2ccccc12` [Molecule 30, 4-Isopropoxy-2-Trichloromethylquinazoline], the melting point came out at 210 °C. Moreover, in data set [3], the “SI (selectivity index = CC50/EC50)” value is under 10. In addition, the “activity against P. falciparum (in words)” value in data set [3] (K1 strain) was “inactive”. Also, in data set [3] (setting [6]), the concentration giving a half-maximal response (EC50) is over 10 µM. Besides, the 50% cytotoxic concentration (CC50) at 72 h in data set [5] stood at 102 µM.

In the case of `C#CCOc1nc(C(Cl)(Cl)Cl)nc2ccccc12` [Molecule 31, 4-(Prop-2-ynyloxy)-2-Trichloromethylquinazoline], the melting point came to 62 °C. The “SI (selectivity index = CC50/EC50)” value in data set [3] was determined as 14.6. Further, in data set [3] (setting [6]), the concentration giving a half-maximal response (EC50) worked out at 3.4 µM. Moreover, the midpoint of cytotoxicity in data set [5], the CC50 at 72 h, lay at 49.6 µM.

`C#CC(C)Oc1nc(C(Cl)(Cl)Cl)nc2ccccc12` (stereo not drawn) [Molecule 32, 4-(But-3-yn-2-yloxy)-2-Trichloromethylquinazoline]: the melting point is 92 °C. In addition, the “SI (selectivity index = CC50/EC50)” value in data set [3] is given as under 4.5. In addition, in data set [3] (setting [6]), the EC50 was over 10 µM. In data set [5], this compound came in with a CC50 at 72 h of 45 µM.

For the compound `C#CC(Oc1nc(C(Cl)(Cl)Cl)nc2ccccc12)C(C)C` (stereo not drawn) [Molecule 33, 4-(4-Methylpent-1-yn-3-yloxy)-2-Trichloromethylquinazoline], the melting point was 96 °C. For the same compound, the “SI (selectivity index = CC50/EC50)” value in data set [3] is under 3. Further, the EC50 in data set [3] (setting [6]) is over 10 µM. In data set [5], this compound gave a cytotoxic concentration (CC50) at 72 h of 30.6 µM.

The compound `OCCOc1nc(C(Cl)(Cl)Cl)nc2ccccc12` [Molecule 34, 2-(2-Trichloromethylquinazolin-4-yloxy)ethanol] displayed a melting point of 93 °C. Also, the “SI (selectivity index = CC50/EC50)” value in data set [3] is on record as 0.8. Further, the concentration giving a half-maximal response (EC50) in data set [3] (setting [6]) came out at 10 µM. This compound also yielded a cytotoxic concentration (CC50) at 72 h in data set [5] of 7.9 µM.

As for `COCCOc1nc(C(Cl)(Cl)Cl)nc2ccccc12` [Molecule 35, 4-(2-Methoxyethoxy)-2-Trichloromethylquinazoline], the melting point stood at 63 °C. Moreover, the “SI (selectivity index = CC50/EC50)” value in data set [3] amounted to 23.1. For the same compound, in data set [3] (setting [6]), the EC50 was determined as 2.3 µM. In data set [5], this compound yielded a CC50 at 72 h of 53.2 µM.

The compound `ClCCOc1nc(C(Cl)(Cl)Cl)nc2ccccc12` [Molecule 36, 4-(2-Chloroethoxy)-2-Trichloromethylquinazoline] had a melting point of 54 °C. The “SI (selectivity index = CC50/EC50)” value in data set [3] was over 28. In data set [3] (setting [6]), the concentration for a half-maximal effect (EC50) is 2.2 µM. Also, the CC50 at 72 h in data set [5] is over 62.5 µM.

For `ClCCCOc1nc(C(Cl)(Cl)Cl)nc2ccccc12` [Molecule 37, 4-(3-Chloropropoxy)-2-Trichloromethylquinazoline], the melting point came to 77 °C. The “SI (selectivity index = CC50/EC50)” value in data set [3] came to 14.4. Also, the EC50 in data set [3] (setting [6]) amounted to 4.2 µM. Further, in data set [5], it took 60.4 µM to reach half-maximal cytotoxicity (CC50 at 72 h).

As to `FCCOc1nc(C(Cl)(Cl)Cl)nc2ccccc12` [Molecule 39, 4-(2-Fluoroethoxy)-2-Trichloromethylquinazoline], the melting point was 73 °C. Besides, the “SI (selectivity index = CC50/EC50)” value in data set [3] was 3.7. Besides, the concentration for a half-maximal effect (EC50) in data set [3] (setting [6]) was 8 µM. Besides, the midpoint of cytotoxicity in data set [5], the CC50 at 72 h, lay at 29.5 µM.

The compound `ClC(Cl)(Cl)c1nc(OCCBr)c2ccccc2n1` [Molecule 40, 4-(2-Bromoethoxy)-2-Trichloromethylquinazoline] yielded a melting point of 100 °C. Further, the “SI (selectivity index = CC50/EC50)” value in data set [3] is recorded as over 28. In addition, the EC50 in data set [3] (setting [6]) is 2.2 µM. This compound also showed a CC50 at 72 h in data set [5] of over 62.5 µM.

A word on the IC50: it is the concentration that gives 50% inhibition. In turn, `CCN(CC)CCOc1nc(C(Cl)(Cl)Cl)nc2ccccc12` [Molecule 41, N,N-Diethyl-2-[(2-Trichloromethylquinazolin-4-yl)oxy]ethanamine] came in with a melting point of 137 °C. The IC50 in data set [3] (Plasmodium falciparum, K1, Figures 2 and 3, read-out: IC50 P. falci. K1) stood at 0.9 µM. The compound further returned a cytotoxic concentration (CC50) at 72 h in data set [5] of 32.3 µM.

Take `CC(=O)NCCOc1nc(C(Cl)(Cl)Cl)nc2ccccc12` [Molecule 42, N-{2-[(2-Trichloromethylquinazolin-4-yl)oxy]ethyl}acetamide]: the melting point worked out at 135 °C. The “SI (selectivity index = CC50/EC50)” value in data set [3] is recorded as over 30. In addition, the half-maximal effective concentration (EC50) in data set [3] (setting [6]) amounted to 3.3 µM. Besides, the CC50 at 72 h in data set [5] was over 99.7 µM.
